Experimental findings from ChEMBL document CHEMBL4808253, “Discovery of 1,3,4-oxadiazole derivatives as potential antitumor agents inhibiting the programmed cell death-1/programmed cell death-ligand 1 interaction” (Bioorg Med Chem, 2021) are described below.

Active and inactive are the calls of the source. The rule behind the calls is not given here.

For data set [1], the target named is T1, Programmed cell death protein 1/Programmed cell death 1 ligand 1 (Homo sapiens, UniProt Q15116+Q9NZQ7). The data set is described as follows: Inhibition of PD1/PD-L1 (unknown origin). In kind it is protein-complex assay.
T1 sequence (Q15116 whole entry): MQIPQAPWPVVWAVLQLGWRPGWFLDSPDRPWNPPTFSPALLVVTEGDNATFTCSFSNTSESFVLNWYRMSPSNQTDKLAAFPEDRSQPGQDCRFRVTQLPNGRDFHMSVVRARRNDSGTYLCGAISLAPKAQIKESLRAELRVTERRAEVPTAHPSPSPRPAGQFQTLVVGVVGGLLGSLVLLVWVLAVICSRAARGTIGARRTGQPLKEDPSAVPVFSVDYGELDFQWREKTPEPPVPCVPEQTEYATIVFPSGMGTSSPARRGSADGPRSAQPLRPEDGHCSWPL
T1 sequence (Q9NZQ7 whole entry): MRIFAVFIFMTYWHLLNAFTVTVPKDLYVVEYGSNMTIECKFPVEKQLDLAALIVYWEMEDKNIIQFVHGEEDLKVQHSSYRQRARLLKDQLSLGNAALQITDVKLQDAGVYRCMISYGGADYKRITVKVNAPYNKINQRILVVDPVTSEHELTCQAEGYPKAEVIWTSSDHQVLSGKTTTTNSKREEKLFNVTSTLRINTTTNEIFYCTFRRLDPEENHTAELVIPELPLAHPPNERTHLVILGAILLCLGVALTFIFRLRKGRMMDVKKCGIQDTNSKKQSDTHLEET
The target of data set [2] is T1, Programmed cell death protein 1/Programmed cell death 1 ligand 1. The data set is described as follows: Inhibition of PD1/PD-L1 (unknown origin) protein-protein interaction measured after 135 mins by TR-FRET assay relative to control. In kind it is protein-complex assay.
The nature of data set [3]: Toxicity in BALB/c mouse allografted with mouse CT26 cells assessed as unusual behaviour at 15 mg/kg, ip for 24 hrs measured for 14 days relative to control. In kind it is organism-based. Particulars: in vivo, 336 h, time 14 day.
The test system of data set [4] is CT26. As to the kind of experiment: Antitumor activity against mouse CT26 cells allografted in BALB/c mouse assessed as tumor growth inhibition at 15 mg/kg, ip for 24 hrs measured for 14 days relative to control. The class given is functional. Particulars: 336 h, time 14 day, read-out: TGI.
For data set [5], the system named is CT26. The data set is described as follows: Antiproliferative activity against […] cells assessed as inhibition of cell growth at 11.11 uM incubated for 48 hrs by MTT assay. In kind it is functional. Particulars: Mus musculus. On the technique in general: Tetrazolium dyes change colour on reduction, which living cells bring about.
Data set [6] has as its system CT26. The data set is described as follows: Antiproliferative activity against mouse CT26 cells assessed as inhibition of cell growth incubated for 48 hrs by MTT assay. The following applies: CT26, 48 h. In kind it is functional, cell-based.
The nature of data set [7]: Toxicity in BALB/c mouse allografted with mouse CT26 cells assessed as body weight change at 15 mg/kg, ip for 24 hrs measured for 14 days relative to control. The class given is organism-based. The following applies: in vivo, 336 h, time 14 day.
Data set [8] has as its system CT26. The data set is described as follows: Antitumor activity against mouse CT26 cells allografted in BALB/c mouse assessed as tumor growth inhibition at 30 mg/kg, ip for 48 hrs measured for 14 days relative to control. Particulars: 336 h, time 14 day, read-out: TGI. In kind it is functional.
Data set [9] can be described thus: Toxicity in BALB/c mouse allografted with mouse CT26 cells assessed as body weight change at 30 mg/kg, ip for 48 hrs measured for 14 days relative to control. In kind it is organism-based. Particulars: in vivo, 336 h, time 14 day.
Data set [10] in a line: Toxicity in BALB/c mouse allografted with mouse CT26 cells assessed as unusual behaviour at 30 mg/kg, ip for 48 hrs measured for 14 days relative to control. In kind it is organism-based. The following applies: in vivo, 336 h, time 14 day.
The subject of data set [11] is CT26. The data set is described as follows: Antitumor activity against mouse CT26 cells allografted in BALB/c mouse assessed as tumor growth inhibition at 15 mg/kg, ip for 48 hrs measured for 14 days in presence of 5-Fu relative to control. The class given is functional. The following applies: read-out: TGI.
Data set [12] can be described thus: Toxicity in BALB/c mouse allografted with mouse CT26 cells assessed as unusual behaviour at 15 mg/kg, ip for 48 hrs measured for 14 days relative to control. The class given is organism-based. Particulars: in vivo, 336 h, time 14 day.
Data set [13] has as its system CT26. The data set is described as follows: Antitumor activity against […] in BALB/c mouse assessed as increase in infiltration of CD4+ T cells into tumor cells at 15 mg/kg, ip for 48 hrs measured for 14 days relative to control. The class given is functional, organism-based.
Data set [14] has as its system CT26. The data set is described as follows: Antitumor activity against […] in BALB/c mouse assessed as increase in infiltration of CD4+ T cells into tumor cells at 15 mg/kg, ip for 48 hrs in presence of 5-Fu by immunohistochemistry analysis. In kind it is functional, organism-based.
Data set [15] can be described thus: Toxicity in BALB/c mouse allografted with mouse CT26 cells assessed as body weight change at 15 mg/kg, ip for 48 hrs measured for 14 days relative to control. The class given is organism-based. Particulars: in vivo, 336 h, time 14 day.
Data set [16] has as its system CT26. The data set is described as follows: Antitumor activity against mouse CT26 cells allografted in BALB/c mouse assessed as tumor growth inhibition at 15 mg/kg, ip for 48 hrs measured for 14 days relative to control. The class given is functional. Particulars: 336 h, time 14 day, read-out: TGI.

Broadly, the IC50 is the concentration that gives 50% inhibition. In the case of `Cc1c(-c2nc3cc(CN4CCCC[C@H]4C(=O)O)cc(Cl)c3o2)cccc1-c1cccc(NC(=O)c2ccc(CNCCO)cn2)c1Cl`, the IC50 in data set [1] is below 10 nM.
The molecule `Cc1c(COc2ccc(CNC(CO)(CO)CO)c(OCc3nc(-c4ccc(F)cc4)cs3)c2)cccc1-c1cccc(OCCCN2CCC(CO)CC2)c1` had an IC50 in data set [2] of 398 nM.
Take `CS(=O)(=O)c1cncc(COc2nc(O[C@H]3CCc4c(-c5cccc6c5CC[C@@H]6Oc5nc(OCc6cncc(S(C)(=O)=O)c6)c(CN6C[C@@H](O)C[C@H]6C(=O)O)cc5Cl)cccc43)c(Cl)cc2CN2C[C@@H](O)C[C@H]2C(=O)O)c1`: 0.051 nM corresponded to half-maximal inhibition in data set [1] (IC50).
What is called inhibition is the share of the control response that was lost under treatment. Regarding `COc1nc(OCc2cccc(-c3ccccc3)c2C)ccc1CNCCNC(C)=O`, the Activity entry in data set [3] and in data set [7] was “Non-Toxic” throughout. Further, the inhibition in vivo at 15 mg/kg in data set [4] was determined as 22.9%. The inhibition at 11.11 µM in [5] came out at 75%. In [6], the IC50 worked out at 3350 nM.
Molecule `Cc1c(-c2nc3cc(CN4CC[C@@](C)(C(=O)O)C4)cc(C#N)c3o2)cccc1-c1cccc(NC(=O)c2nc3c(n2C)CCN(C[C@@H](C)O)C3)c1Cl` showed an IC50 in data set [1] below 10 nM.
Regarding `Cc1c(COc2ccc(CNC(CO)(CO)CO)c(OCc3nnc(-c4ccccc4)o3)c2)cccc1-c1cccc(OCCCN2CCOCC2)c1`, the IC50 in [2] amounted to 642 nM.
Consider `O=c1[nH]cc(F)c(=O)[nH]1` [FLUOROURACIL], for which the inhibition in vivo at 30 mg/kg in [8] was 29.8%. Also, the Activity entry in data set [9] and in data set [10] was “Non-Toxic” in each case.
`Cc1c(COc2ccc(CNC(CO)(CO)CO)c(OCc3nc(-c4ccc(F)cc4)cs3)c2)cccc1-c1cccc(OCCCN2CCC(O)CC2)c1C` registered an IC50 in data set [2] of 167 nM.
As to `Cc1c(COc2ccc(CNC(CO)(CO)CO)c(OCc3nnc(-c4ccccc4)o3)c2)cccc1-c1cccc(OCCCN2CCC(CO)CC2)c1`, the inhibition in vivo at 15 mg/kg in data set [11] stood at 64.6%; in data set [16], 35.7%. Besides, the Activity entry in data set [12] and in data set [15] was “Non-Toxic” in each case. Besides, the result in [13] and in data set [14] was Active. Moreover, the inhibition at 11.11 µM in [5] amounted to 75%. The IC50 was 38 nM in [2] and 19800 nM in data set [6].
`C[C@@](CO)(NCc1cc(Cl)c(O[C@H]2CCc3c(-c4cccc5c4CC[C@@H]5Oc4nc(OCc5cncc(S(C)(=O)=O)c5)c(CN[C@@](C)(CO)C(=O)O)cc4Cl)cccc32)nc1OCc1cncc(S(C)(=O)=O)c1)C(=O)O` displayed a half-inhibitory concentration (IC50) in data set [1] of 0.058 nM.
`Cc1ccccc1-c1cccc(COc2ccc(CNC(CO)(CO)CO)c(OCc3nnc(-c4ccccc4)o3)c2)c1C` came in with an IC50 in data set [2] of 150 nM.
